According to patent publication US20250027086A1, “COMPOSITIONS AND METHODS FOR TREATMENT OF CANCERS USING MODIFIED siRNA-GEM AGENTS” (Sirnaomics, Inc., priority 2022, published 2025):

Columns and labels:
[1] = system: pancreatic, lung and colon cancer cell lines; assay: Cell viability in pancreatic, lung and colon cancer cell lines; format: cell-based; details: single siRNA against non-silencing control; pancreatic, lung, colon; FIG. 6
Method: (§1) MIA PaCa-2, […], LS180, HT1376, HT29, H358, H1299, OVCAR-3, HTB-9 and Panc 10.05 cells were obtained from ATCC (Rockville, MD). MiaPaCa cells were cultured in DMEM medium supplemented with 10% FBS. H358, H1299, HTB-9, N87 and Panc 10.05 cells were cultured in DMEM/10% FBS; LS180 and HT1376 in EMEM/10% FBS; HT29 cells in McCoy5A/10% FBS; OVCAR-3 cells were incubated in RPMI/20% FBS. All cells were maintained at 37 degrees C. in an atmosphere containing 5% CO^2.
(§2) The day before transfection, cells were seeded in a 384-well plate at an optimal density of between 300 and 800 cells/well. The next day, ten 3-fold serial dilutions of single, modified-backbone siRNAs or PGN6/PGN7 siRNA and Gemcitabine (GEM) mixed with siRNAs: Wee1 #7, KRAS #1, MCL1 #3 or DM2-P47 siRNAs at 1:1 ratio were prepared and combined with diluted Lipofectamine RNAiMAX (Life Technologies, Carlsbad, CA). Within 20 minutes, 10 μl of the transfection mixtures were added to the cells in a 40 μL medium. The final concentrations of siRNAs or Gemcitabine in the wells ranged from 100 nM to 0.002 nM.
(§3) Ninety-six hours following the addition of GEM or transfection mixtures, the number of viable cells was determined with CellTiter-Glo®-2.0 reagent (Promega, Madison, WI) by measuring luminescent signal using a Cytation 5 plate reader (BioTek Inc, Winooski, VT). The treatment group (n=4) mean (±SD) was compared to those of non-treated controls and were reported as relative cell viability.
Using the same experimental conditions as are described above in Example 1, the efficacy on cell viability was evaluated for PGN6 (SEQ. ID Nos. 7-8), with and without lipofentamine (“lipo”) in three types of cancer cell lines. FIG. 3 (a)-(c) show the effects of PGN6, with and without lipo on cell viability at increasing siRNA levels in pancreatic cancer cell lines. FIG. 4 (a)-(b) similarly show the effects of these variants on cell viability in lung cancer cell lines; FIG. 5 (a)-(b) show the effects of these variants on cell viability in colon cancer cell lines. All data are shown as mean±SD. […]
Using the same experimental conditions as are described above in Example 1, the efficacy of STD1 (SEQ. ID Nos. 1-2), PGN6 (SEQ. ID Nos. 7-8) and PGN7 (SEQ. ID Nos. 9-10) were evaluated in three types of cancer cell lines. […]
Using the same experimental conditions as are described above in Example 1, the efficacy of PGN7 (SEQ. ID No. 9-10) alone and its combination with WEE1 #7 (SEQ. ID No. 13) was evaluated in three types of cancer cell lines. […]
Using the same experimental conditions as are described above in Example 1, the efficacy of PGN7 (SEQ. ID No. 9-10) and the combination of BCLxL #5 (SEQ. ID No. 14) and PGN7 was evaluated in three types of cancer cell lines. […]

[2] = system: HT1376, HTB-9, N87 and OVCAR-3 cell lines; assay: Cell viability in urinary bladder, gastric and ovarian cancer cell lines; format: cell-based; details: HT1376, HTB-9, N87, OVCAR-3; FIGS. 9-10
Method: as §1
(§4) The day before transfection, cells were seeded in a 384-well plate at an optimal density of between 300 and 800 cells/well. […]
(§5) Ninety-six hours following the addition of GEM or transfection mixtures, the number of viable cells was determined with CellTiter-Glo®-2.0 reagent (Promega, Madison, WI) by measuring luminescent signal using a Cytation 5 plate reader (BioTek Inc, Winooski, VT). […]
Using the same or similar experimental condition as are described above in Example 1, the effects of PGN7 (SEQ. ID No. 9-10), Wee1 (SEQ. ID No. 13), BCLxL #5 (SEQ. ID No. 14) or the PGN7+Wee1, or PGN+BCLxL combinations were evaluated and are shown in HT1376 (400 cells/well) and HTB-9 (800 cells/well) urinary bladder cancer cell lines, N87 (600 cells/well) gastric cancer cell line, and OVCAR-3 (800 cells/well) ovarian cancer line in FIGS. 11 (a)-(d). […]

OVCAR3 cells = assay: Cell viability in ovarian cancer cell line OVCAR3; format: cell-based; details: OVCAR3, 800 cells per well; FIG. 13(b)
Method: as §1, §4, §5
(§6) Using the same or similar experimental condition as are described above in Example 1, the effects of (i) PGN7 (SEQ. ID No. 9-10) plus a non-signaling oligonucleotide (“NS”), (ii) BCLxL #5 (SEQ. ID No. 14)+NS, and (iii) PGN7 and BCLxL #5 in combination were evaluated and are shown in triple negative breast cancer (MDA-MB231) and ovarian cancer (OVCAR3) cell lines in FIGS. 13 (a)-(b). […]

MiaPaCa-2 cells = assay: Cell viability (CellTiter-Glo) in MiaPaCa-2 pancreatic cancer cells after transfection; format: cell-based, human; details: in combination with lipofectamine; 96 h; n=4 (FIG. 2); read-out: IC50, MiaPaCa-2 cell viability
Method: as §1, §2, §3

MDA-MB231 cells = assay: Cell viability in triple negative breast cancer cell line MDA-MB231; format: cell-based; details: MDA-MB231, 400 cells per well; FIG. 13(a)
Method: as §1, §4, §5, §6

Q: With “PGN7: modified siRNA-GEM RNAi agent (SEQ. ID No. 9-10): sense 5′-AAGAAAgAgau[GEM]uGuAu[GEM]AAu-3′; antisense 5′-AuUGAuACAGAuCuCuUuCuU[GEM][GEM]dTdT-3′ (sense AAGAAAGAGATCTGTATCAAT; antisense ATTGATACAGATCTCTTTCTTCCTT; GEM modifications; 2'-modified bases; dTdT overhang; modified_base 1 OTHER; 2'-O-methyl modified nucleotide; modified_base 2 OTHER; modified_base 3 OTHER; modified_base 4 OTHER; modified_base 5 OTHER; modified_base 6 OTHER; modified_base 7 OTHER; 2'-fluoro modified nucleotide; modified_b; 2'-O-me)” as the substance, how does the “reduction of cell viability” value [1] read?
A: effective in reducing cell viability

Q: And the “efficacy on cell viability” value [2]?
A: significant efficacy

Q: And the IC50 (OVCAR3 cells)?
A: 0.5 nM

Q: What about the IC50 (MiaPaCa-2 cells) of the same substance?
A: 0.006 nM

Q: What about the IC50 (MDA-MB231 cells) of the same substance?
A: 1.1 nM
